Experimental data: patent US20260174823A1 (The Children's Medical Center Corporation, priority 2022, published 2026)
Entries after “also recorded” stand apart in the source; their conditions may differ.

Legend:
endometriosis lesions = experiment: endometriosis lesion size measured with calipers in mouse model; format: in vivo
[1] = system: murine model for endometriosis pain; experiment: endometriosis-associated pain overall (von Frey plus spontaneous pain behaviors) in mouse model; format: in vivo; settings: 29 to 56 dpi, vs vehicle
[2] = system: murine model for endometriosis pain; experiment: spontaneous pain quantification (abdominal squashing and contortions) in mouse model of endometriosis; format: in vivo
Method: (§1) After at least one week of acclimatization, donor mice received a subcutaneous injection of 3 μg/mouse estradiol benzoate to stimulate the growth of the endometrium. Seven days later, the uteri of the donor mice were dissected into a Petri dish containing HBSS and split longitudinally with a pair of scissors. Uterine horns from each donor mouse were minced with scissors and scalpel one at the time, ensuring that the maximal diameter of each fragment was consistently smaller than 1 millimeter (mm). Each dissociated uterine horn was then injected intraperitoneally using an 18 G needle into a recipient mouse in 500 μL of HBSS. One donor mouse was used for every two endometriosis mice.
For spontaneous abdominal pain measurements, stretching the abdomen (abdominal contortions) and squashing of the lower abdomen against the floor were quantified. Briefly, for the abdominal contortions, mice were placed in individual chambers in a temperature-controlled (29° C.) glass plate and the number of abdominal contortions was quantified for 10 minutes.
Positive responses consist of a contraction of the abdominal muscle together with stretching of hind limbs. For abdominal squashing, the number of times the mice pressed the lower abdominal region against the floor in five minutes was quantified.
It was therefore tested whether Rimegepant is effective at reducing pain in a murine model (FIG. 1A). Endometriosis lesions were induced in 40 mice and at day 29 post-induction, mice were randomly assigned to treatment with vehicle or Rimegepant at 3, 10, or 30 mg/kg (n=10 mice per group). Treatment was performed daily by oral gavage. Mechanical abdominal pain was determined weekly, 7 to 42 days post implantation (dpi) using von Frey filaments, while abdominal squashing and contortions were determined by counting these pain behaviors. Lesion size was calculated from the mean of two measurements (width and height in mm). […]

[3] = system: murine model for endometriosis pain; experiment: von Frey testing of abdominal mechanical pain in non-surgical mouse model of endometriosis; format: in vivo
Method: as §1
(§2) For mechanical and heat hyperalgesia tests, mice were allowed to habituate to the apparatus for at least 2 hours and during three consecutive days before the beginning of measurements. […] Pain intensity to a mechanical stimulus (mechanical hyperalgesia) in the abdominal region was measured using von Frey filaments. […] The mechanical threshold was determined by the up and down method starting with 0.4 g filament and calculated using the open-source software Up-Down Reader.
It was therefore tested whether Rimegepant is effective at reducing pain in a murine model (FIG. 1A). […] Lesion size was calculated from the mean of two measurements (width and height in mm). […]

[4] = system: murine model for endometriosis pain; experiment: endometriosis-associated pain overall (von Frey plus spontaneous pain behaviors) in mouse model; format: in vivo; settings: vs vehicle
Method: as §1, §2
For spontaneous abdominal pain measurements, stretching the abdomen (abdominal contortions) and squashing of the lower abdomen against the floor were quantified. […]

[5] = system: mouse endometrial epithelial cells (mEECs); experiment: mEEC proliferation assay in transwell co-culture with peritoneal macrophages (CyQuant); format: cell-based; settings: Rimegepant 100 nM 30 minutes before CGRP 100 nM for 24 hours
Method: (§3) Peritoneal cells were collected in FACS buffer from the abdominal cavity of naïve mice. Peritoneal cavity immune cells were seeded in petri dishes in RPMI media and incubated at 37° C. in 5% CO2 for 60 minutes. Non-adherent cells were discarded, and adherent cells (macrophages) were scraped, centrifuged, and counted.
For experiments involving mouse epithelial endometrial cell (mEEC) proliferation, macrophages were plated (100,000 cells per well) onto tissue culture insert and left overnight with 20,000 mEEC plated on the bottom of the well. Stimulus with CGRP (100 nM) or vehicle was performed for 24 hours and then mEEC were used to determine for cell proliferation assay using CyQuant™ kit (Thermo Fisher Scientific #C7026). Treatment with Rimegepant (100 nM) or vehicle was performed 30 minutes before stimulus with CGRP.
In this experiment, peritoneal macrophages were plated on a cell culture insert and co-cultured with a mouse epithelial endometrial cell line (mEEC) in a 24-well plate. Cell growth was assessed using the CyQuant™ kit and quantification performed in a spectrophotometer (n=8 well per group).
Macrophages were plated onto tissue culture insert with mEEC plated on the bottom of the well. […] Results shown are expressed as mean±SEM, n=5−12 (one-way ANOVA followed by Tukey's post hoc or Student's t-test, ****P<0.0001, p<0.001, **p<0.02, *p<0.05).

peritoneal macrophages = experiment: efferocytosis assay: peritoneal macrophages with apoptotic 12z-eGFP cells; format: cell-based, mouse; settings: Rimegepant 100 nM 30 minutes before CGRP 100 nM for 24 hours; apoptotic 12z-eGFP added for 1 hour
Method: as §3
For the efferocytosis assay, macrophages (200,000 cells per well) were plated overnight onto a 96-well plate. Stimulus with CGRP (100 nM) or vehicle was performed for 24 hours. After that, etoposide-induced apoptotic 12z-eGFP were added (600,000 cells per well) to the macrophage culture and incubated for 1 hour. Cells were washed 3 times with DPBS to remove non-engulfed 12z-eGFP and then and fluorescence intensity determined. Treatment with Rimegepant (100 nM) or vehicle was performed 30 minutes before stimulus with CGRP. […]
For the efferocytosis assay, macrophages were plated overnight onto a 96-well plate and stimulus with CGRP (100 nM) or vehicle was performed for 24 h. […] Cells were washed 3 times with DPBS to remove non-engulfed 12z-eGFP and then and fluorescence intensity determined. […] Results shown are expressed as mean±SEM, n=5−12 (one-way ANOVA followed by Tukey's post hoc or Student's t-test, ****P<0.0001, p<0.001, **p<0.02, *p<0.05).

[6] = cited from earlier work
[7] = nociceptor ablation in RTX-treated lesion-bearing mice
[8] = Rimegepant 3, 10 or 30 mg/kg daily by oral gavage, 29 to 42 dpi, vs vehicle

Q: With `C[C@@H]1[C@H](c2ccccc2)C[C@H](NC(=O)c2cnc3c(c2)C[C@@]2(C3)C(=O)Nc3ncccc32)C(=O)N1CC(F)(F)F` [Ubrogepant] as the molecule, how does the lesion size (endometriosis lesions; Ubrogepant 50 mg/kg daily per oral gavage, 29 to 56 dpi, vs vehicle) read?
A: significantly smaller

Q: What about the lesion size (endometriosis lesions; Ubrogepant 50 mg/kg daily per oral gavage, 29 to 56 dpi, vs vehicle, listed as Ubrogevant) of the same molecule?
A: reduce

Q: And the endometriosis-associated pain ([1]; Ubrogepant 50 mg/kg daily per oral gavage)?
A: significant reduction

Q: And the endometriosis-associated pain ([1]; Ubrogepant 50 mg/kg daily per oral gavage, listed as Ubrogevant)?
A: reduce

Q: Which spontaneous pain behaviors [2, 7] does the source give for `C=C(C)[C@]12C[C@@H](C)[C@@]34O[C@](Cc5ccccc5)(O[C@@H]1[C@@H]3C=C(COC(=O)Cc1ccc(O)c(OC)c1)C[C@]1(O)C(=O)C(C)=C[C@@H]41)O2` [RTX, resiniferatoxin toxin] here?
A: reduced

Q: And the evoked pain [3, 7]?
A: reduced

Q: What about the lesion size (endometriosis lesions; [7]) of the same molecule?
A: reduced

Q: Which “number of abdominal contortion” value [2, 8] does the source give for `N[C@@H]1c2cccnc2[C@H](OC(=O)N2CCC(n3c(=O)[nH]c4ncccc43)CC2)CC[C@H]1c1cccc(F)c1F` [Rimegepant] here?
A: reduced

Q: And the “number of abdominal squashing” value [2, 8]?
A: reduced

Q: What about the endometriosis-associated pain ([4]; Rimegepant 3, 10 or 30 mg/kg daily by oral gavage, 29 to 42 dpi) of the same molecule?
A: reduces endometriosis-associated pain

Q: And the “growth (proliferation) of mEEC promoted by CGRP-stimulated macrophages” value [5]?
A: inhibited; also recorded: reduces mEEC proliferation

Q: What about the “abdominal mechanical threshold to the von Frey fibers” value [3, 8] of the same molecule?
A: increased

Q: What about the lesion size (endometriosis lesions; [8]) of the same molecule?
A: reduced lesion size; also recorded: reduces

Q: And the “efferocytosis activity of CGRP-stimulated macrophages (eGFP fluorescence intensity)” value (peritoneal macrophages)?
A: rescued; also recorded: restores normal levels of efferocytosis

Q: And the “preclinical safety profile upon chronic treatment” value ([6]; chronic treatment (26 weeks))?
A: safe preclinical profile

Q: What about the “adverse effects on fertility” value ([6]; doses as high as 60 mg/kg) of the same molecule?
A: no adverse effects on fertility

Q: With `CC[N+](CC)(CC)CC(=O)Nc1c(C)cccc1C` [QX-314] as the molecule, how does the endometriosis-associated pain ([4]; QX-314 0.1 or 1 mg/kg daily i.p., 29 to 35 dpi) read?
A: reduced endometriosis-associated pain; also recorded: reduces

Q: What about the lesion size (endometriosis lesions; QX-314 0.1 or 1 mg/kg daily i.p., 29 to 35 dpi, vs vehicle) of the same molecule?
A: reduced lesion size; also recorded: reduces

B1: Galcanezumab (antibody, chains of the INN, looked up, V domains shown)
VH: QVQLVQSGAEVKKPGSSVKVSCKASGYTFGNYWMQWVRQAPGQGLEWMGAIYEGTGKTVYIQKFADRVTITADKSTSTAYMELSSLRSEDTAVYYCARLSDYVSGFGYWGQGTTVTVSS
VL: DIQMTQSPSSLSASVGDRVTITCRASKDISKYLNWYQQKPGKAPKLLIYYTSGYHSGVPSRFSGSGSGTDFTLTISSLQPEDFATYYCQQGDALPPTFGGGTKVEIK
notes: a second monoclonal antibody antagonist of CGRP
Q: For B1, which lesion size (endometriosis lesions; Galcanezumab 4 mg/kg subcutaneous injection, 29 to 56 dpi, vs vehicle) is on record?
A: reduce

Q: And the endometriosis-associated pain ([1]; Galcanezumab 4 mg/kg subcutaneous injection)?
A: significant reduction; also recorded: reduce

B2: Fremanezumab (antibody, chains of the INN, looked up, V domains shown)
VH: EVQLVESGGGLVQPGGSLRLSCAASGFTFSNYWISWVRQAPGKGLEWVAEIRSESDASATHYAEAVKGRFTISRDNAKNSLYLQMNSLRAEDTAVYYCLAYFDYGLAIQNYWGQGTLVTVSS
VL: EIVLTQSPATLSLSPGERATLSCKASKRVTTYVSWYQQKPGQAPRLLIYGASNRYLGIPARFSGSGSGTDFTLTISSLEPEDFAVYYCSQSYNYPYTFGQGTKLEIK
notes: a monoclonal antibody antagonist of CGRP
Q: With B2 as the molecule, how does the lesion size (endometriosis lesions; Fremanezumab 100 mg/kg subcutaneous injection, 29 to 56 dpi, vs vehicle) read?
A: significantly smaller; also recorded: reduce

Q: And the endometriosis-associated pain ([1]; Fremanezumab 100 mg/kg subcutaneous injection)?
A: significant reduction; also recorded: reduce
